The values that follow come from PMC7867085, “In Vitro and In Vivo Antitumor Activity of Indolo[2,3-b] Quinolines, Natural Product Analogs from Neocryptolepine Alkaloid” (Molecules, 2021).

One assay concerns Ehrlich ascites carcinoma (EAC) cells. As to the kind of experiment: In vitro cytotoxic activity, trypan blue dye exclusion. Format: cell-based, mice. The note with it: 3 h incubation at 37 °C. On the procedure:
The synthesized indoloquinoline analogs 6a–d were evaluated for their cytotoxic activity against Ehrlich ascites carcinoma (EAC), as depicted in Table 1. The EAC cells used in this study were supplied by National Cancer Institute, Cairo, Egypt. The cells were maintained in vivo in Swiss Albino female mice by intraperitoneal transplantation (0.2 mL of 2 × 10^6 cells/mL). EAC cells were aspirated from the peritoneal cavity of mice, washed with saline and given intraperitoneally to develop ascites tumor. Trypan blue dye exclusion technique was used to figure the viability percentage of EAC cells to assay the cytotoxic activity of the studied compounds. In brief, under completely sterile conditions, EAC cells were separated away from the mice abdomens. Hank’s balanced salt solution (HBSS) was used to wash the separated cells. Cells were put in a cooling centrifuge at 1500 rpm for 15 min; the produced granules were put back into suspension using HBSS, the mentioned steps were done in triplicate. Finally, a measured volume of RPMI 1640 was used to suspend the cells, followed by the addition of 10% fetal bovine serum, 10 µg/mL streptomycin and 100 U/mL penicillin. Consequently, the cell count was adjusted to 2 × 10^6 cells/mL from the prepared diluted cell suspension 0.2 mL was titrated in 96 flat-bottomed tissue culture plates. Serial concentrations of each tested compound were prepared and added in triplicate and incubated at 37 °C for 3 h in a 5% CO2 atmosphere. The IC50 parameter (half-maximum inhibitory concentration) was calculated using Trypan blue dye exclusion test, and then the cytotoxic effect was evaluated using control EAC cells. Thalidomide was used as a reference drug alongside the parent natural compound neocryptolepine I for comparison. Thalidomide was used as a reference drug because its mechanism of action is expected to be similar to the mechanism of action of neocryptolepine analogs as its anticancer action may be based on its antiangiogenic action, resulting from specific DNA intercalation as well as induce cell cycle arrest.
The percentage of EAC cell death of the synthesized derivatives was evaluated by trypan blue exclusion assay. In addition, the compounds 6a–d, as well as the reference drug thalidomide and the parent natural compound neocryptolepine (I), were evaluated through eight concentration levels. It is worth noting that this cytotoxicity was dose-dependent when compared to the reference drug, thalidomide and the control, which was treated with the corresponding dilutions of DMSO.
As a preparation step to perform cytotoxicity assay against the EAC cell line, thalidomide, parent neocryptolepine and the indoloquinoline compounds a 6a, 6b, 6c and 6d were dissolved in DMSO/saline (0.3:0.7) to prepare a solution of 10 mmol concentration. The stock solutions were stored at 4 °C and were used all over the assay. EAC cells were supplied by the National Cancer Institute, Cairo, Egypt. The cells were maintained in vivo in Swiss albino female mice by intraperitoneal transplantation (0.2 mL of 2 × 10^6 cells/mL). EAC cells were aspirated from the peritoneal cavity of mice, washed with saline, and given intraperitoneally to develop ascites tumor.
Trypan blue dye exclusion technique was used to figure the viability percentage of EAC cells to assay the cytotoxic activity of the studied compounds. In brief, under completely sterile conditions, EAC cells were separated away from the mice’s abdomen. Hank’s balanced salt solution (HBSS) was used to wash the separated cells. The cells were put in a cooling centrifuge at 1500 rpm for 15 min; the produced granules were put back into suspension using HBSS, the mentioned steps were done in triplicate. Finally, a measured volume of RPMI 1640 was used to suspend the cells, followed by the addition of 10% fetal bovine serum, 10 µg/mL streptomycin and 100 U/mL penicillin and the cell count was adjusted to 2 × 10^6 cells/mL. […]
The molecule “5(5-Methyl-5H-indolo[2,3-b] quinolin-11-ylamino) Pyrimidine-2,4(1H,3H)-dione [Compound 6c]” gave an IC50 of 0.33 nM.

On to “5-Methyl-N-(4-methylpiperazin-1-yl)-5H-indolo[2,3-b] Quinolin-11-amine [Compound 6d]”, for which half-maximal inhibition (IC50) was put at 0.15 nM.

Still in this assay, the particulars now being: Mus musculus, Ehrlich, 3 h incubation at 37 °C.
With `Cn1c2nc3ccccc3c-2c(NCCc2c[nH]c3ccccc23)c2ccccc21` [Compound 6b, N-(2-(1H-Indol-3-yl)ethyl)-5-methyl-5H-indolo[2,3-b] Quinolin-11-amine], the IC50 was 0.064 nM.

As to `Cn1c2nc3ccccc3c-2c(Nc2ccc(Br)cc2F)c2ccccc21` [Compound 6a, N-(4-Bromo-2-fluorophenyl)-5-methyl-5H-indolo[2,3-b] Quinolin-11-amine], half-maximal inhibition (IC50) was put at 0.17 nM.

For the next assay, the system named is solid-tumor (EAC) bearing mice (liver homogenate). The experiment in a line: Lipid peroxidation and antioxidant enzymes in liver homogenate of solid-tumor bearing mice. Format: in vivo, Swiss female albino mice. The note with it: 100 mg/kg for 5 days. On the procedure:
Measuring antioxidant enzyme levels and lipid peroxidation was utilized to evaluate the pharmacological effect of indoloquinoline derivatives. The study group was divided into two subgroups, normal mice and tumor-bearing mice. Each subgroup is further subdivided into two groups, one group received indoloquinoline derivatives, and the other group was marked as a placebo group.
After administration of indoloquinoline analogs 6a, 6b, 6c and 6d at a dose of 100 mg/kg for 5 constitutive days to mice with EAC, the levels of lipid peroxidation were highly significant less than that of the positive control group (p < 0.001). Meanwhile, the level of SOD in the liver homogenate of positive bearing mice was 32.1% (p < 0.001) less than that of the normal group (Table 5).
The eradicated liver was double washed first, with ice-cold normal saline then, with cold 0.15 mol/L Tris-HCl buffer (pH 7.4). The clean organ was dried and weighed, and used to prepare a 10% w/v homogenate in 0.15 mol/L Tris-HCl buffer. A portion of the prepared homogenate was centrifuged at 1500 rpm for 15 min at 4 °C [47] and used for estimating lipid peroxidation, SOD [48] and CAT [49] analysis was carried out using the supernatant.
Consider `Cn1c2nc3ccccc3c-2c(NCCc2c[nH]c3ccccc23)c2ccccc21` [Compound 6b, N-(2-(1H-Indol-3-yl)ethyl)-5-methyl-5H-indolo[2,3-b] Quinolin-11-amine], for which the “increase of CAT level against positive control” value (shortened to “increase of CAT level”) is recorded as 78.04% and the “increase of SOD level in relation to positive control group” value (shortened to “increase of SOD level in relation”) amounted to 53.69%.

“5(5-Methyl-5H-indolo[2,3-b] quinolin-11-ylamino) Pyrimidine-2,4(1H,3H)-dione [Compound 6c]”: the “increase of CAT level” value is given as 107.3% and the “increase of SOD level in relation” value is given as 36.24%.

Regarding `Cn1c2nc3ccccc3c-2c(Nc2ccc(Br)cc2F)c2ccccc21` [Compound 6a, N-(4-Bromo-2-fluorophenyl)-5-methyl-5H-indolo[2,3-b] Quinolin-11-amine], the “increase of CAT level” value worked out at 51.2% and the “increase of SOD level in relation” value is reported as 54.4%.

As for “5-Methyl-N-(4-methylpiperazin-1-yl)-5H-indolo[2,3-b] Quinolin-11-amine [Compound 6d]”, the “increase of CAT level” value was 65.8% and the “increase of SOD level in relation” value worked out at 39.8%.

The same assay, now with this note: 100 mg/kg for 5 days, liver.
`Cn1c2nc3ccccc3c-2c(NCCc2c[nH]c3ccccc23)c2ccccc21` [Compound 6b, N-(2-(1H-Indol-3-yl)ethyl)-5-methyl-5H-indolo[2,3-b] Quinolin-11-amine]: the CAT came to 7.3 ± 0.16 KU/mg Tissue/s, the “Lipid Peroxidation” value is reported as 268.9 ± 2.8 nmol MDA/g Tissue and the SOD was 146.06 ± 3.11 U/g Tissue.

Take “5(5-Methyl-5H-indolo[2,3-b] quinolin-11-ylamino) Pyrimidine-2,4(1H,3H)-dione [Compound 6c]”: the CAT stood at 8.5 ± 0.34 KU/mg Tissue/s, the “Lipid Peroxidation” value was 262.1 ± 1.9 nmol MDA/g Tissue and the SOD was 129.47 ± 1.38 U/g Tissue.

Consider `Cn1c2nc3ccccc3c-2c(Nc2ccc(Br)cc2F)c2ccccc21` [Compound 6a, N-(4-Bromo-2-fluorophenyl)-5-methyl-5H-indolo[2,3-b] Quinolin-11-amine], for which the CAT is reported as 6.2 ± 0.14 KU/mg Tissue/s, the “Lipid Peroxidation” value turned out to be 249.3 ± 2.1 nmol MDA/g Tissue and the SOD is recorded as 146.75 ± 2.11 U/g Tissue.

Regarding “5-Methyl-N-(4-methylpiperazin-1-yl)-5H-indolo[2,3-b] Quinolin-11-amine [Compound 6d]”, the CAT was determined as 6.8 ± 0.12 KU/mg Tissue/s, the “Lipid Peroxidation” value is on record as 249.9 ± 2.2 nmol MDA/g Tissue and the SOD was found to be 132.86 ± 0.55 U/g Tissue.

Another assay has as its system EAC-induced solid tumor. As to the kind of experiment: Antitumor activity: reduction in tumor volume of EAC-induced solid tumor. Format: in vivo, Swiss female albino mice. The note with it: day 12 (last day of treatment), 100 mg/kg SC daily for five consecutive days. As to the method: The aim of this study is to characterize indoloquinoline analogs 6a–d curative ability and antineoplastic activity on solid-form of Ehrlich tumors. Tumor volume is a potential biomarker for Ehrlich tumor development. The induction of solid tumor in Swiss female mice performed by inserting 0.2 mL of EAC cells (2 × 10^6 cell/mL) subcutaneously (SC) between thighs of the lower limb. When the tumor volume reached 15–20 mm^3 (Seven days after tumor induction), the mice were randomly divided into 6 groups (n = 10), five groups were injected subcutaneously with thalidomide and indoloquinoline analogs 6a–d (100 mg/kg) daily for five consecutive days, the sixth group (positive control group) were given DMSO/saline (0.3/0.7). The 8th day is considered the zero days of treatment. The tumor volume was daily measured with a vernier caliper for four days stated from day eight.
Thalidomide and indoloquinoline derivatives 6a–d were tested for their antitumor effect; the test was done in vivo on mice-bearing solid tumors. The induction of solid tumor in Swiss female mice performed by inserting 0.2 mL of EAC cells (2 × 10^6 cell/mL) subcutaneously (SC) between thighs of the lower limb. Seven days after tumor induction, animals were divided into 6 groups (n = 10), five groups were injected subcutaneously with 100 mg/kg of tested compounds daily for 5 consecutive days, the sixth group (positive control group) were given 0.3 DMSO/0.7 H2O. On day twelve, after carrying out EAC cells, mice were sacrificed, dissected, and change in tumor mass was evaluated by measuring the developed tumor mass volume using the formula [45, 46]:Tumor volume (mm^3) = 0.52 × length × (width)^2.(1)
Consider `Cn1c2nc3ccccc3c-2c(NCCc2c[nH]c3ccccc23)c2ccccc21` [Compound 6b, N-(2-(1H-Indol-3-yl)ethyl)-5-methyl-5H-indolo[2,3-b] Quinolin-11-amine], for which the “reduction percentage in tumor volume” value is recorded as 87.37%.

Take “5(5-Methyl-5H-indolo[2,3-b] quinolin-11-ylamino) Pyrimidine-2,4(1H,3H)-dione [Compound 6c]”: the “reduction percentage in tumor volume” value is 93.29%.

For the molecule `Cn1c2nc3ccccc3c-2c(Nc2ccc(Br)cc2F)c2ccccc21` [Compound 6a, N-(4-Bromo-2-fluorophenyl)-5-methyl-5H-indolo[2,3-b] Quinolin-11-amine], the “reduction percentage in tumor volume” value is reported as 90.58%.

Turning to “5-Methyl-N-(4-methylpiperazin-1-yl)-5H-indolo[2,3-b] Quinolin-11-amine [Compound 6d]”, the “reduction percentage in tumor volume” value came to 94.90%.

As usually defined, the IC50 is the midpoint of a concentration-inhibition curve. The low end stands for higher potency, the high end for lower potency.
